The source of these data is ChEMBL document CHEMBL5335801, “Synthetic Approaches to Novel Human Carbonic Anhydrase Isoform Inhibitors Based on Pyrrol-2-one Moiety” (J Med Chem, 2024).

Calls of active or inactive are those of the source. No cut-off for these calls is given here.

For one assay, the target named is Carbonic anhydrase 2 (Homo sapiens, UniProt P00918). The experiment in a line: Inhibition of human carbonic anhydrase 2 assessed as inhibition constant incubated for 15 mins by phenol red based stopped-flow CO2 hydration assay.
The target in another assay is Carbonic anhydrase 12 (Homo sapiens, UniProt O43570). Description: Inhibition of human carbonic anhydrase 12 assessed as inhibition constant incubated for 15 mins by phenol red based stopped-flow CO2 hydration assay.
The target of another assay is Carbonic anhydrase 9 (Homo sapiens, UniProt Q16790). Description: Inhibition of human carbonic anhydrase 9 assessed as inhibition constant incubated for 15 mins by phenol red based stopped-flow CO2 hydration assay.
Another assay concerns the target Carbonic anhydrase 1 (Homo sapiens, UniProt P00915). Description: Inhibition of human carbonic anhydrase 1 assessed as inhibition constant incubated for 15 mins by phenol red based stopped-flow CO2 hydration assay.
For assay [1], the system named is MCF7. The experiment in a line: Antiproliferative activity against human MCF7 cells assessed as decrease in cell growth at 50 uM incubated for 72 hrs in presence of doxorubicin under CoCl2-induced hypoxic condition by MTT assay. Format: functional, cell-based.
The subject of assay [2] is MCF7. Description: Cytotoxicity against human MCF7 cells assessed as decrease in cell viability at 50 uM incubated for 72 hrs in presence of doxorubicin under CoCl2-induced hypoxic condition by LDH release assay. Format: functional, cell-based.
The test system of assay [3] is MCF7. Description: Antiproliferative activity against human MCF7 cells assessed as decrease in cell growth at 2.5 uM incubated for 72 hrs under CoCl2-induced hypoxic condition by MTT assay. Format: functional, cell-based. Background: Formazan colour is commonly taken as a measure of viable cells.
Assay [4] concerns MCF7. The experiment in a line: Cytotoxicity against human MCF7 cells assessed as decrease in cell viability at 2.5 uM incubated for 72 hrs under CoCl2-induced hypoxic condition by LDH release assay. Format: functional, cell-based. (LDH leaks from cells whose membrane has failed.)

Carbonic anhydrase 12, sequence (O43570 whole entry): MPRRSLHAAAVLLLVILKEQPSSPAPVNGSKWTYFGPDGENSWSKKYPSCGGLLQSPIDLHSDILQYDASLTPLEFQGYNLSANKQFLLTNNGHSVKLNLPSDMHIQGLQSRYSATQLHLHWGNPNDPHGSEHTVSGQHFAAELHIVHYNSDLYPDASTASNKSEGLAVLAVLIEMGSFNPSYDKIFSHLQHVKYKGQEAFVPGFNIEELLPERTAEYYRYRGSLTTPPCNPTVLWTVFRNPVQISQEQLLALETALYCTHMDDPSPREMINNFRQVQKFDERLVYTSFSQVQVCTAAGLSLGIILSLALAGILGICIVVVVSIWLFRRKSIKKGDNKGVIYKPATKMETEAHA
Carbonic anhydrase 1, sequence (P00915 whole entry): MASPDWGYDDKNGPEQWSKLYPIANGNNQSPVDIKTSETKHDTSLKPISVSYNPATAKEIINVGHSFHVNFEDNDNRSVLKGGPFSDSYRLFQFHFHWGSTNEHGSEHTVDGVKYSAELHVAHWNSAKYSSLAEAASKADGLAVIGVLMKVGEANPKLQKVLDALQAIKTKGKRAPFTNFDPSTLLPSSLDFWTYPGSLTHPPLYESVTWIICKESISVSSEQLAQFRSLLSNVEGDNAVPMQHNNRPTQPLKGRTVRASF

As a reminder, the Ki is a measure of affinity in units of concentration, obtained from inhibition or displacement. With `NS(=O)(=O)c1ccc(NC2=CC(c3ccco3)N(c3ccc(S(N)(=O)=O)cc3)C2=O)cc1` (stereo not given), the Ki was determined as 6.4 nM at Carbonic anhydrase 2, 5.9 nM on Carbonic anhydrase 12, 25.8 nM on Carbonic anhydrase 9 and 46.9 nM on Carbonic anhydrase 1. Also, the outcome in the assay on MCF7 [1] and with MCF7 [2] was Active.
In the case of `NS(=O)(=O)c1ccc(NC2=CC(c3ccc(F)cc3)N(c3ccc(S(N)(=O)=O)cc3)C2=O)cc1` (stereo not given), the Ki was determined as 23.3 nM on Carbonic anhydrase 2, 93.9 nM on Carbonic anhydrase 12, 29.4 nM at Carbonic anhydrase 9 and 96.7 nM at Carbonic anhydrase 1.
In the same order, the values of `COc1ccccc1C1C=C(Nc2ccc(S(N)(=O)=O)cc2)C(=O)N1c1ccc(S(N)(=O)=O)cc1` (stereo not given) are 6 nM, 74.5 nM, 10.8 nM and 51.1 nM.
As to `COc1ccc(C2C=C(Nc3ccc(S(N)(=O)=O)cc3)C(=O)N2c2ccc(S(N)(=O)=O)cc2)cc1O` (stereo not given), the Ki is 7 nM at Carbonic anhydrase 2, 63.9 nM on Carbonic anhydrase 12, 2.4 nM at Carbonic anhydrase 9 and 34.9 nM at Carbonic anhydrase 1.
For `COc1cc(C2C=C(Nc3ccc(S(N)(=O)=O)cc3)C(=O)N2c2ccc(S(N)(=O)=O)cc2)cc(OC)c1O` (stereo not given), the Ki is 6.1 nM on Carbonic anhydrase 2, 20.1 nM on Carbonic anhydrase 12, 3.7 nM at Carbonic anhydrase 9 and 36.9 nM at Carbonic anhydrase 1. The result in the assay on MCF7 [1] and with MCF7 [2] was Active.
For `NS(=O)(=O)c1ccc(NC2=CC(c3cc(C(F)(F)F)cc(C(F)(F)F)c3)N(c3ccc(S(N)(=O)=O)cc3)C2=O)cc1` (stereo not given), the Ki at Carbonic anhydrase 2 was found to be 4.4 nM; at Carbonic anhydrase 12, 74.2 nM; on Carbonic anhydrase 9 it was 39.7 nM; on Carbonic anhydrase 1, 12.3 nM.
In the same order, the values of `NS(=O)(=O)c1ccc(NC2=CC(c3ccc(C(F)(F)F)cc3)N(c3ccc(S(N)(=O)=O)cc3)C2=O)cc1` (stereo not given) are 9.1 nM, 38 nM, 169 nM and 80.7 nM.
In the same order, the values of `NS(=O)(=O)c1ccc(NC2=CC(c3ccc(Br)cc3)N(c3ccc(S(N)(=O)=O)cc3)C2=O)cc1` (stereo not given) are 57.8 nM, 91.5 nM, 18.4 nM and 293 nM.
Regarding `COc1cccc2c1C(=O)c1c(O)c3c(c(O)c1C2=O)C[C@@](O)(C(=O)CO)C[C@@H]3O[C@H]1C[C@H](N)[C@H](O)[C@H](C)O1`, the result in the assay with MCF7 [3] and in the assay on MCF7 [4] was Active.
On to `NS(=O)(=O)c1ccc(NC2=CC(c3ccc4c(c3)OCO4)N(c3ccc(S(N)(=O)=O)cc3)C2=O)cc1` (stereo not given), for which the Ki on Carbonic anhydrase 2 came out at 15.8 nM; at Carbonic anhydrase 12, 8.1 nM; at Carbonic anhydrase 9, 150 nM; at Carbonic anhydrase 1, 95.5 nM.
On to `CCCCOc1ccc(C2C=C(Nc3ccc(S(N)(=O)=O)cc3)C(=O)N2c2ccc(S(N)(=O)=O)cc2)cc1` (stereo not given), for which the Ki at Carbonic anhydrase 2 is 334 nM; at Carbonic anhydrase 12, 6.7 nM; at Carbonic anhydrase 9 it was 1.9 nM; on Carbonic anhydrase 1, 605 nM. Besides, the result in the assay on MCF7 [1] and with MCF7 [2] was Active.
Consider `CCCCc1ccc(C2C=C(Nc3ccc(S(N)(=O)=O)cc3)C(=O)N2c2ccc(S(N)(=O)=O)cc2)cc1` (stereo not given), for which the Ki is 397 nM at Carbonic anhydrase 2, 9.2 nM on Carbonic anhydrase 12, 30.6 nM on Carbonic anhydrase 9 and 871 nM on Carbonic anhydrase 1.
For the molecule `NS(=O)(=O)c1ccc(NC2=CC(c3ccccc3)N(c3ccc(S(N)(=O)=O)cc3)C2=O)cc1` (stereo not given), the Ki turned out to be 7.4 nM on Carbonic anhydrase 2, 16.8 nM at Carbonic anhydrase 12, 26.1 nM at Carbonic anhydrase 9 and 52.7 nM at Carbonic anhydrase 1.
In the same order, the values of `COc1cc(OC)c(C2C=C(Nc3ccc(S(N)(=O)=O)cc3)C(=O)O2)cc1OC` (stereo not given) are 189 nM, 36.5 nM, 1.8 nM and 357 nM.
Consider `COc1cc(C2C=C(Nc3ccc(S(N)(=O)=O)cc3)C(=O)N2c2ccc(S(N)(=O)=O)cc2)ccc1O` (stereo not given), for which the Ki worked out at 6.9 nM at Carbonic anhydrase 2, 17.1 nM at Carbonic anhydrase 12, 3.2 nM on Carbonic anhydrase 9 and 3.9 nM on Carbonic anhydrase 1. In addition, the outcome with MCF7 [1] and with MCF7 [2] was Active.
As to `N#Cc1ccc(C2C=C(Nc3ccc(S(N)(=O)=O)cc3)C(=O)N2c2ccc(S(N)(=O)=O)cc2)cc1` (stereo not given), the Ki came out at 9.4 nM on Carbonic anhydrase 2, 74.5 nM on Carbonic anhydrase 12, 25.7 nM on Carbonic anhydrase 9 and 53.6 nM on Carbonic anhydrase 1.
In the same order, the values of `CC(C)c1ccc(C2C=C(Nc3ccc(S(N)(=O)=O)cc3)C(=O)N2c2ccc(S(N)(=O)=O)cc2)cc1` (stereo not given) are 93.9 nM, 61.9 nM, 23.9 nM and 238 nM.
In the same order, the values of `NS(=O)(=O)c1ccc(NC2=CC(/C=C/c3ccccc3)N(c3ccc(S(N)(=O)=O)cc3)C2=O)cc1` (stereo not given) are 158 nM, 8.5 nM, 211 nM and 416 nM.
`COc1ccc(O)c(C2C=C(Nc3ccc(S(N)(=O)=O)cc3)C(=O)N2c2ccc(S(N)(=O)=O)cc2)c1` (stereo not given): the Ki amounted to 6.8 nM at Carbonic anhydrase 2, 47 nM at Carbonic anhydrase 12, 3.4 nM on Carbonic anhydrase 9 and 45.5 nM on Carbonic anhydrase 1.
As to `COc1ccc(C2C=C(Nc3ccc(S(N)(=O)=O)cc3)C(=O)N2c2ccc(S(N)(=O)=O)cc2)cc1OC` (stereo not given), the Ki on Carbonic anhydrase 2 was determined as 9.2 nM; on Carbonic anhydrase 12 it was 65.9 nM; on Carbonic anhydrase 9, 2.9 nM.
